Assay results: patent publication US8846330B2, “Methods and kits for the diagnosis of RyR1-related diseases” (The Henry M. Jackson Foundation for the Advancement of …, priority 2008, dated 2014)
Entries after “also recorded” stand apart in the source; their conditions may differ.

Key:
[1] = system: skeletal muscle strips (Vastus lateralis); assay: caffeine halothane contracture test (CHCT), swine muscle strips
[2] = system: biopsied skeletal muscle strips; assay: caffeine halothane contracture test (CHCT), human muscle strips; conditions: 2 mM caffeine, average of 3 muscle strips
Excerpt: Currently definitive MH diagnosis is made by means of the invasive, surgery-requiring caffeine halothane contracture test (CHCT) in North America, by a similar in vitro contracture test (IVCT) in Europe and by technically very difficult calcium induced calcium release (CICR) in Japan; all these tests use biopsied leg muscle (Vasitis lateralis). Other countries are using tests essentially similar to one or these tests. CHCT has a sensitivity of 97% (accurately detects MH susceptible individuals) with a specificity of only 78% (yields 22% false positives). However, because of the invasive surgery, the costs of the test, and the limited viability of the biopsied skeletal muscle samples, the CHCT must be completed within 5 hours post biopsy. Therefore, the muscle biopsies must be conducted at a certified MH diagnostic center or in close-by hospitals (currently there are only 6 MH diagnostic centers in North America). Because of these procedural and logistic complexities, it is estimated that only about 10% of all individuals eligible to undergo the CHCT test are actually tested (estimated from referrals to the North American Malignant Hyperthermia Hotline).

lymphocyte cells [3] = assay: 4CmC-induced adenosine in swine lymphocyte cells, nucleosides assay (Example 4); type: cell-based; conditions: for effect of azumolene on 4CmC-induced adenosine: azumolene up to 1 mM (0-1000 μM)
Method: Isolation of lymphocytes from whole blood: Lymphocyte cells were isolated from whole blood by Ficoll-Hypaque density gradient centrifugation technique (see Boyum A., Scand. J. Clip. Lab. 97:77-89 (1968)). Isolated lymphocyte cells were dispensed into 3-volume normal Hanks' balanced salt solution (HBSS) and centrifuged (10 minutes at 1000 RPM). The pellet was re-suspended in HBSS to lyse contaminating erythrocytes and spun. The later step was repeated one more time. To maintain simplicity of the protocol for possible MH diagnostic purposes no further purification was attempted. Lymphocyte cells were then cultured in RPMI-1640 media supplemented with 10% fetal bovine serum, […] penicillin and 2 mM glutamine. Cell cultures were incubated at 37° C. in a humidified chamber with 5% CO2. All experiments were completed within 4 days after isolation of lymphocyte cells from whole blood samples.
Nucleosides Assay Protocol: Briefly, lymphocyte cells (1−2×10^6 cells/test) were suspended in HBSS with or without Ca^2+/Mg^2+ (as indicated for each experiment) plus 0.1% bovine serum albumin (BSA). Experiments were carried out in the presence of the adenosine deaminase inhibitor erythro-9-(2-hydroxy-3-nonyl) adenine-HCl ([…]) to prevent deamination of adenosine to inosine (Lorbar et al., J Mol Cell Cardiol 31: 401-12 (1999)) and incubated at 37° C. for 10 minutes followed by treatment with different 4CmC concentrations (0.05-10 mM). Further incubation at 37° C. for an additional 45 minutes was also carried out. Final volumes of the test tubes were adjusted to 0.2 ml using HBSS buffer. Termination of the cell activity and purification of samples was accomplished by addition of 0.1 ml 12% perchloric acid followed by centrifugation at 5000 RPM for 10 minutes. Aliquots of the supernatant (50 μl) were assayed for adenosine and inosine content using HPLC.
HPLC Conditions: The HPLC system consisted of a Waters Symmetry C18 column (4.6×250 mm) and mobile phase of 94% KH2PO4 (50 mM, pH 4.6) containing 1-heptanesulfonic acid (0.5 mM) and 6% acetonitrile. Under these conditions, retention times for inosine and adenosine were 4 and 7.3 min, respectively. Peak width of inosine and adenosine were 18 and 36 seconds, respectively. Eluting compounds were detected by their absorbance at 254 nm using a Waters photodiode array detector (model 996). Sample adenosine and inosine concentrations were obtained using a calibrated standard curve of concentrations vs. peak area.
Statistics: Sample nucleosides concentrations were normalized to represent per 1 million cells and presented as means±SEM. The t-test was applied to test for differences between agonist-induced nucleosides in lymphocyte cells from MHS and normal swine. A P<0.05 considered to indicate statistical significance.

lymphocyte cells [4] = assay: 4CmC-induced adenosine in human lymphocyte / immortalized B cells (Example 3); type: cell-based
lymphocyte cells [5] = assay: 4CmC-induced adenosine/inosine in human peripheral blood lymphocytes, HPLC (Example 1); type: cell-based; conditions: 4CmC-stimulated lymphocytes
Method: FIG. 2 is a dose-response curve for 4-chloro-m-cresol (4CmC)-induced intracellular adenosine plus inosine in lymphocyte cells from malignant hyperthermia susceptible (MHS, n=11), not-susceptible (MHN, n=9), and normal (n=7) subjects. Lymphocyte cells were treated with 4CmC in the presence of an inhibitor of adenosine deaminase (EHNA, 0.1 mM). After purification, aliquot was analyzed for adenosine and inosine content using HPLC. Adenosine plus inosine values in the absence of 4CmC are plotted against X=0.02 mM to allow logarithmic display of the entire dose response curve. Adenosine plus inosine levels were normalized to reflect per 1 million cells. 4CmC responses at 1, 2, and 5 mM on MHS groups are about 4, 4, and 6 fold higher than the corresponding values in MI-1N or normal groups with values of 6×10^−5, 8×10^−5, and […], respectively. There were no overlaps between the MHS group and the MHN or normal groups.
Lymphocyte cells from MHS (n=11), MHN (n=9) and normal (n=7) subjects were suspended in normal HBSS plus 0.1% BSA and treated with adenosine deaminase inhibitor (EHNA, 0.1 mM). After 10 minutes of incubation at 37° C., cells were treated with HBSS, with and without the RyR1 agonist 4CmC (5 mM) and incubated at 37° C. for an additional 45 minutes. After termination and purification of the samples, aliquots (50 μl) were assayed in duplicate for adenosine and inosine content using HPLC. Concentrations are normalized to per 1 million cells. The sum of the adenosine plus inosine level is about 6-fold higher than corresponding values in normal and MHN cells.
Pilot studies were conducted using blood samples from human subjects in the following groups: Group 1: MHS subjects with positive CHCT and/or having a known MH associated mutation (n=11); Group 2: non-MH susceptible with negative CHCT results (MHN) (n=9), and Group 3: normal subjects who had not undergone CHCT and had no family history of MH (n=7).
Briefly, venous blood samples (20 ml) were drawn from patients using heparinized blood collection tubes. Peripheral blood lymphocyte cells were isolated from whole blood by the Ficoll-Hypaque centrifugation technique. Briefly, diluted anti-coagulated blood is layered over Ficoll-Hypaque and centrifuged. Mononuclear cells consisting of lymphocytes and some monocytes are recovered at the interface. The cells were washed with the Flanks' balanced salt solution (HBSS) buffer, re-suspended in the HBSS buffer, and treated with different concentration of 4CmC at 37° C. in the presence and/or absence of inhibitor of adenosine deaminase erythro-9-(2-hydroxy-3-nonyl)adenine (EHNA) for about 30 minutes. The cells were then purified by adding an equal volume of 6% HClO4 and centrifuged at 6000 rpm for 10 minutes. Aliquots of the supernatant were analyzed for adenosine and inosine content with HPLC using a Waters Separation Module (Model 2695) equipped with Waters Photodiode Array Detector and Empower software.

[6] = muscle strips from normal swine

Cn1c(=O)c2c(ncn2C)n(C)c1=O [Caffeine, caffeine]
Caffeine (2 mM)-induced contractures, range ([1]; muscle strips from MHS swine): 4.7-17.1 mN | Caffeine (2 mM)-induced contractures, mean [1, 6]: 0.4 mN | Caffeine (2 mM)-induced contractures, range [1, 6]: 0-1 mN | CHCT Results Contractures (g) 2 mM Caf ([2]; Table 1, CHCT-negative subjects): 0 g | CHCT Results Contractures (g) 2 mM Caf ([2]; Table 2, MHN subjects): 0 g

FC(F)(F)C(Cl)Br (centres unmarked) [Halothane, halothane]
Halothane (3%)-induced contractures, mean ([1]; muscle strips from MHS swine): 19.2±3.1 mN | Halothane (3%)-induced contractures, range ([1]; muscle strips from MHS swine): 11.2-33.1 mN | Halothane (3%)-induced contractures, mean [1, 6]: 1.2±1.0 mN | Halothane (3%)-induced contractures, range [1, 6]: 0-1.8 mN

CCCCCC[C@@H]([C@@H](C)O)n1cnc2c(N)ncnc21 (racemic) [EHNA, erythro-9(2-hydroxy-3-nonyl)adenine]
EHNA concentration at which inosine formation decreased and ADO increased to plateau level (lymphocyte cells [3]; swine lymphocytes (n=3)): ≥ 20 µM | inhibition of ADO deaminase by EHNA (lymphocyte cells [4]; immortalized B cells from a CHCT positive (MHS) subject, 4CmC 2 mM, FIG. 4): effectively inhibited | EHNA concentration at which inosine formation decreased, matched by equimolar increase in adenosine (lymphocyte cells [5]): ≥ 10 µM

C1CCC[C@H]2CCCN3CC[C@@H](CCCCCC[C@@H]4CCCN5CC[C@@H](CC1)O[C@@H]45)O[C@@H]23 [XeC, Xestospongin C]
effect of XeC on 4CmC-induced ADO (lymphocyte cells [3]; 1 μM XeC, 2 mM 4CmC, normal swine): did also not affect | decrease of 4CmC-induced ADO by XeC (lymphocyte cells [3]; 10 μM XeC, 2 mM 4CmC, normal swine (n=5)): 27% | effect of XeC alone on basal ADO levels (lymphocyte cells [3]; XeC 1 and 10 μM, Ca2+/Mg2+-free HBSS): did not affect | effect of XeC on 4CmC (2 mM)-induced adenosine (lymphocyte cells [3]; XeC as printed in figure legend, normal swine): Significantly (P=0.002) Reduced | effect of XeC alone on basal ADO levels (lymphocyte cells [4]; XeC 1 and 10 μM): did not produce any change | effect of XeC on response of B cells to 4CmC (lymphocyte cells [4]; immortalized B cells (MHS, n=3), Ca2+ free HBSS, 2 mM 4CmC): did not affect

O=C1CN(/N=C/c2ncc(-c3ccc(Br)cc3)o2)C(=O)N1 [azumolene]
effect of azumolene on 4CmC-induced adenosine (lymphocyte cells [3]; 1 mM 4CmC, normal swine (n=5), Ca2+/Mg2+-free HBSS): only marginally inhibited | effect of azumolene on 4CmC-induced adenosine (lymphocyte cells [3]; 1 mM 4CmC, normal swine (n=5), Ca2+/Mg2+-free HBSS, listed as Azumolene): did not significantly decrease; also recorded: did not significantly affect | Ki (lymphocyte cells [3]; non-linear curve fitting, 1 mM 4CmC, read-out: apparent Ki value of azumolene for inhibition of 4CmC-induced ADO formation): ~5 mM

N#CC(C#N)=NNc1ccc(OC(F)(F)F)cc1 [FCCP, Carbonyl cyanide 4-(trifluoromethoxy) phenylhydrazone]
ADO level reached with FCCP alone (lymphocyte cells [3]; FCCP 2 and 20 μM, FIG. 14A): 0.1 to 0.12 µM | effect of FCCP on basal adenosine levels (lymphocyte cells [3]; FCCP 2 and 20 μM, FIG. 14A): significantly increased | increase of basal ADO levels by FCCP alone (lymphocyte cells [3]; FCCP 2 and 20 μM, normal swine, Ca2+/Mg2+ free HBSS): 4.5 fold | effect of FCCP on 4CmC-induced ADO formation (lymphocyte cells [3]; both tested FCCP concentrations, 1 mM 4CmC during FCCP treatment (FIG. 14B)): prevented the maximum increase in ADO formation | effectiveness of FCCP in inducing ADO formation relative to 4CmC (lymphocyte cells [3]; normal swine lymphocytes): 25%
